Where “and” joins values, the source holds several entries; their conditions need not be identical. Identical values can stand only once.
Key:
[1] = system: HCC827 tumors (delE746-A750 activating mutation); experiment: Antitumor activity in the HCC827 mouse xenograft model; type: in vivo; conditions: oral QD; for Tumor Weight: tumors harvested day 35, mean ± SD, n = 8; for Tumor Weight Inhibition Rate: tumors harvested day 35
Procedure: Cell Culture and Implantation. HCC827 cells were cultured in a CO2 incubator in culture media containing modified RPMI (Hyclone, Cat: SH30809.01); 10% fetal bovine serum (Gibco, Cat: 10099-141); 100 U/ml penicillin and 100 μg/ml streptomycin (Hyclone, Cat: SV30010). Cells were digested with 0.25% trypsin (Hyclone, Cat: SH30042.01) and subcultured every four days. When the required cells was in the logarithmic growth phase, the cell counts were collected and the tumors were subcutaneously implanted in Balb/c nude female mice (14-19 g) at 1×10^7/0.2 mL/mouse (50% Matrigel CORNING, Cat: 354234) in the right back side of each mouse. 8 days after implantation, 56 mice with tumor volume of 132-289 mm^3 were selected and randomly divided into 7 groups according to tumor volume and body weight.
Test Sample Preparation Formulation and Administration. A stock solution of 1 as the methanesulfonate salt was prepared at 0.3 mg/mL in normal saline. A stock solution of 2 as the hydrochloride salt was prepared 2.0 mg/mL in sterile water. The vehicle control was a solution of 0.5% sodium carboxymethyl cellulose in sterile water. All stock solutions were stored at 2-8° C. and prepared fresh on a weekly basis. The stock solutions were administered orally either individually or in combination at the indicated salt dosages depicted in FIG. 1 and Table 2 once a day for 14 days. Dosing was suspended when body weight lost more than 15%.
Tumor Volume Determination and Data Analysis. The tumor volumes were determined twice per week by measuring the length and width of each tumor with a Vernier caliper and calculating the tumor volume. All tumors were harvested on day 35 and weighed. The Tumor Weight Inhibition Rate (IRTW%) was calculated via the equation: IRTW%=(1−(TW(treated)/TW(control)))×100%, where TW is defined as tumor weight. Histograms were generated using Prism GraphPad (mean±S.E.M.), and T analysis was used for statistical analysis. A p value less than 0.05 represents a significant difference between groups and a p value less than 0.01 represents a highly significant difference between groups.

[2] = system: kinase domain of the T790M double mutant; conditions: cited from earlier work
[3] = system: MCF7 human breast cancer cell line; conditions: cited from earlier work

Row | SMILES | Tumor Weight ([1]; 1 at 3 mg/kg alone) | Tumor Weight Inhibition Rate ([1]; 1 at 3 mg/kg alone, 3 mg/kg) | inhibition of EGFR T790M double mutant kinase domain [2] | Tumor Weight Inhibition Rate ([1]; 2 at 20 mg/kg alone) | Tumor Weight ([1]; 2 at 20 mg/kg alone) | in vitro activity in MCF7 cell line [3]
1 | C=CC(=O)Nc1cc(Nc2nccc(-c3cn(C)c4ccccc34)n2)c(OC)cc1OCCN(C)C [Compound 1, N-[2-[2-(dimethylamino)ethoxy]-4-methoxy-5-[[4-(1-methyl-1H-indol-3-yl)-2-pyrimidinyl]amino]phenyl]-2-propenamide] | 0.1423 ± 0.1152 g | 83.1% and 83.1^f % | effectively inhibits | – | – | –
2 | CCN1CCN(Cc2ccc(Nc3ncc(F)c(-c4ccc5nn(C)c(C(C)C)c5c4)n3)nc2)CC1 [Compound 2, N-[5-[(4-ethyl-1-piperazinyl)methyl]-2-pyridinyl]-5-fluoro-4-[2-methyl-3-(1-methylethyl)-2H-indazol-5-yl]-2-pyrimidinamine] | – | – | – | 30.2% | 0.5864 ± 0.2235 g | potent in vitro activity
